From patent US20110092546A1, “SUBSTITUTED BENZIMIDAZOLES FOR NEUROFIBROMATOSIS” (NOVARTIS AG, priority 2008, published 2011)
Where two headings read alike, the source gives them in different places.

How the values were obtained:
[1] = system: ST88 cells; details: ST88 cells (NF1+/−); cited from earlier work
[2] = system: NF90 cells; details: NF90 cells (NF1+/−); cited from earlier work
[3] = system: VEGF-induced angiogenesis in Matrigel plug; assay: VEGF-CHO Matrigel plug angiogenesis model in mice (hemoglobin, Drabkin's reagent); type: in vivo; details: treated days 1 and 4, plugs excised day 5
From the text: Due to the inhibition of VEGFR-2, RAF265 also has anti-angiogenic activity which may also provide a therapeutic benefit in treating neurofibromas. To confirm that RAF265 inhibits the growth of new blood vessels (i.e., angiogenesis) in vivo, mice were implanted with Matrigel® containing Chinese hamster ovary cells (CHO) overexpressing VEGF and then treated mice with a dose range of RAF265 or a vehicle control (days 1 and 4). In this model, VEGF expressed from the CHO cells induces angiogenesis within the Matrigel® plug. Plugs are excised on day 5 and assayed for hemoglobin using Drabkin's reagent, as a measure of the degree of angiogenesis.

[4] = system: phospho-MEK in ST88 cells; assay: phospho-MEK ELISA in ST88 cells; type: cell-based
From the text: (§1) The ST88 cell line (NF1^+/−) contains elevated levels of Ras-GTP and is often used as a pre-clinical model for NF1. […] Pathway inhibition and anti-proliferative activity of RAF265 in ST88 cells.

[5] = system: phospho-ERK in ST88 cells; assay: phospho-ERK ELISA in ST88 cells; type: cell-based
From the text: as §1

[6] = system: ST88 cells; assay: Proliferation of ST88 cells; type: cell-based
From the text: as §1

Structure (SMILES)	effect on proliferation (in words) [1]	levels of phospho-ERK (in words) [1]	effect on proliferation (in words) [2]	levels of phospho-ERK (in words) [2]	dose giving maximal suppression of hemoglobin content [3] [mg/kg]	hemoglobin content of Matrigel plug (in words) [3]	levels of phospho-MEK after treatment (in words) ([4]; ST88 cells)	EC50 ([4]; ST88 cells (NF1+/−)) [nM]	levels of phospho-ERK after treatment (in words) ([5]; ST88 cells)	EC50 ([5]; ST88 cells (NF1+/−)) [nM]	effect on proliferation (in words) ([6]; ST88 cells)	EC50 ([6]; ST88 cells (NF1+/−)) [nM]
O=C(NOCC1CC1)c1ccc(F)c(F)c1Nc1ccc(I)cc1Cl [CI-1040]	inhibited proliferation	decreased levels of phospho-ERK	inhibited proliferation	decreased levels of phospho-ERK	–	–	–	–	–	–	–	–
Cn1c(Nc2ccc(C(F)(F)F)cc2)nc2cc(Oc3ccnc(-c4ncc(C(F)(F)F)[nH]4)c3)ccc21 [Example 1]	–	–	–	–	50	dose-dependent decrease	decreased levels	150	decreased levels	185	inhibition of proliferation	207
